Data reported in PubChem BioAssay (NCI).
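GI50 = concentration required for 50% inhibition of growth. TGI marks complete inhibition of growth.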

Key:
Test in all cases: NCI-60 cell line screen, 384-well format
[1] = test system: HCT-15 colon
[2] = test system: RXF 393 renal
[3] = test system: SNB-75 CNS
[4] = test system: SK-OV-3 ovarian
[5] = test system: A498 renal
[6] = test system: KM12 colon
[7] = test system: NCI-H322M lung
[8] = test system: UACC-257 melanoma
[9] = test system: RPMI-8226 leukemia
[10] = test system: NCI-H522 lung
[11] = test system: A549 NSCLC
[12] = test system: HCC-2998 colon
[13] = test system: MDA-MB-231 breast
[14] = test system: LOX IMVI melanoma
[15] = test system: HS 578T breast
[16] = test system: NCI-H460 NSCLC
[17] = test system: SK-MEL-28 melanoma
[18] = test system: PC-3 prostate
[19] = test system: T-47D breast
[20] = test system: SF-539 CNS
[21] = test system: HCT-116 colon
[22] = test system: BT-549 breast
[23] = test system: SW-620 colon
[24] = test system: HT29 colon
[25] = test system: NCI/ADR-RES ovarian
[26] = test system: U251 glioblastoma
[27] = test system: OVCAR-3 ovarian
[28] = test system: SF-268 CNS
[29] = test system: MALME-3M melanoma
[30] = test system: SK-MEL-5 melanoma
[31] = test system: HL-60(TB) leukemia
[32] = test system: MDA-MB-435 melanoma
[33] = test system: EKVX NSCLC
[34] = test system: CAKI-1 renal

Cc1cccc(-c2nn3c(c2-c2ccnc4ccc(C(N)=O)cc24)CCC3)n1
GI50 [1]: 2.97 µM
TGI [1]: 10.6 µM
GI50 [2]: 2.02 µM
TGI [2]: 4.6 µM
GI50 [3]: 2.52 µM
TGI [3]: 11.3 µM
GI50 [4]: 3.17 µM
TGI [4]: 10.4 µM
GI50 [5]: 3.34 µM
TGI [5]: 12 µM
GI50 [6]: 2.47 µM
TGI [6]: 6.04 µM
GI50 [7]: 3.86 µM
TGI [7]: 16.6 µM
GI50 [8]: 6.22 µM
TGI [8]: 19.7 µM
GI50 [9]: 1.74 µM
TGI [9]: 3.13 µM
GI50 [10]: 1.8 µM
TGI [10]: 4.1 µM
GI50 [11]: 3.93 µM
TGI [11]: 14.3 µM
GI50 [12]: 3.78 µM
TGI [12]: 13.2 µM
GI50 [13]: 4.81 µM
TGI [13]: 16.6 µM
GI50 [14]: 2.77 µM
TGI [14]: 7.47 µM
GI50 [15]: 1.74 µM
TGI [15]: 3.65 µM
GI50 [16]: 2.37 µM
TGI [16]: 5.92 µM
GI50 [17]: 6.9 µM
TGI [17]: 19.7 µM
GI50 [18]: 3.64 µM
TGI [18]: 11.8 µM
GI50 [19]: 3.64 µM
TGI [19]: 16.8 µM
GI50 [20]: 2.44 µM
TGI [20]: 5.39 µM
GI50 [21]: 3.65 µM
TGI [21]: 12.3 µM
GI50 [22]: 2.41 µM
TGI [22]: 5.7 µM
GI50 [23]: 5.1 µM
TGI [23]: 15.6 µM
GI50 [24]: 2.37 µM
TGI [24]: 6.01 µM
GI50 [25]: 2.17 µM
TGI [25]: 4.48 µM
GI50 [26]: 2.65 µM
TGI [26]: 8.58 µM
GI50 [27]: 2.15 µM
TGI [27]: 3.96 µM
GI50 [28]: 3.05 µM
TGI [28]: 9.5 µM
GI50 [29]: 5.57 µM
TGI [29]: 16.4 µM
GI50 [30]: 2.55 µM
TGI [30]: 6.56 µM
GI50 [31]: 2.08 µM
TGI [31]: 3.57 µM
GI50 [32]: 1.95 µM
TGI [32]: 3.83 µM
GI50 [33]: 3.92 µM
TGI [33]: 12.8 µM
GI50 [34]: 3.9 µM
TGI [34]: 14.1 µM
